# In patent US4016042A, “Substrate for the quantitative determination of enzymes” (Pentapharm A.G., priority 1974, dated 1977):
# Counter-ions that a name gives are not always drawn. Non-standard residues stand in square brackets, D forms with d. Residues, ends and D or L forms follow the SMILES beside them. *: point of attachment. Cha = N[C@@H](CC1CCCCC1)C(=O)O; pNA = O=[N+]([O-])c1ccc(N*)cc1; Phg = N[C@H](C(=O)O)c1ccccc1; Tos = Cc1ccc(S(=O)(=O)*)cc1; 4Abz = Nc1ccc(C(=O)O)cc1; βNA = c1ccc2cc(N*)ccc2c1; Cbz = O=C(OCc1ccccc1)*; Bz = O=C(c1ccccc1)*; Ahx = NCCCCCC(=O)O
# What was measured:
# plasma kallikrein = plasma kallikrein (Homo sapiens, UniProt P03952); assay: Activity of plasma kallikrein measured with the substrates at constant substrate and enzyme concentrations; format: biochemical; conditions: split product
# Experimental: (§1) HCl, were used for the quantitative determination of various enzymes in blood plasma. The determination was carried out by taking advantage of the fact that the split product NH2 -R^2 formed by enzymatic hydrolysis of the substrate has a UV spectrum which differs from that of the substrate and is shifted toward higher wave lengths. Thus, N^α-Bz-Pro-Phe-Arg-pNA^.
# (§2) The degree of the enzymatic hydrolysis of the substrate, which is proportional to the quantity of p-nitroaniline formed, can be easily determined by spectrophotometric measurement at 405 nm. […] The conditions are practically the same for the other substrates carrying a p-nitroanilino group as a chromogenic group. The spectrophotometric measurement was, therefore, carried out in all cases at 405 nm.
# plasmin = plasmin (Homo sapiens, UniProt P00747); assay: Activity of human plasmin measured with the substrates at constant substrate and enzyme concentrations; format: biochemical; conditions: split product
# Experimental: as §1, §2
# Chain of plasmin (P00747 581-810 limits assumed): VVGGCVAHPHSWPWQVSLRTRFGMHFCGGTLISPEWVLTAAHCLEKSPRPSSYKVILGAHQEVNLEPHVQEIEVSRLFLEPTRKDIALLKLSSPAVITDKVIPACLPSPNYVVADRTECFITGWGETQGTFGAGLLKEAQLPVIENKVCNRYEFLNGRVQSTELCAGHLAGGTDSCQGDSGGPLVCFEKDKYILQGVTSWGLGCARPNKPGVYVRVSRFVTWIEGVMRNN
# Chain of plasmin (P00747 97-580 partner limits assumed): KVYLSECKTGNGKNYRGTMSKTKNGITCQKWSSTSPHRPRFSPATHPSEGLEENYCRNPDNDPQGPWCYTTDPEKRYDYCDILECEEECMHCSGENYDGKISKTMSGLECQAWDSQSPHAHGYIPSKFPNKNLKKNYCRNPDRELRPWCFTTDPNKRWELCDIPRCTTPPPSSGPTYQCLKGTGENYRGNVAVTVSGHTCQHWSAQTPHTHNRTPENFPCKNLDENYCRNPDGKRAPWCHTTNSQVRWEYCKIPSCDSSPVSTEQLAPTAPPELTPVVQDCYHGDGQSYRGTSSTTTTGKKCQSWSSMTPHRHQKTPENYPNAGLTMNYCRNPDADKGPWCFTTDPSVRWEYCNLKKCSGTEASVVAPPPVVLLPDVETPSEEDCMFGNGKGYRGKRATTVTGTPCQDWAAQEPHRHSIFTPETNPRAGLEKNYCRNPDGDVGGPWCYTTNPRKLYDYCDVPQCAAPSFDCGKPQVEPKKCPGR
# Chain of plasma kallikrein (P03952 391-638 limits assumed, species assumed): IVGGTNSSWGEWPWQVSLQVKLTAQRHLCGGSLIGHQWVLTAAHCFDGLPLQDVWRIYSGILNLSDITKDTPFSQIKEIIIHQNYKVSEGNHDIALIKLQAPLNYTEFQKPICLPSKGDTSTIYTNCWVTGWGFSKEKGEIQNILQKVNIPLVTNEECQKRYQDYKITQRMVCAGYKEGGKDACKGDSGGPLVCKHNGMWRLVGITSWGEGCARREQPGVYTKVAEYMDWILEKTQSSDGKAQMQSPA
# Chain of plasma kallikrein (P03952 20-390 partner limits assumed, species assumed): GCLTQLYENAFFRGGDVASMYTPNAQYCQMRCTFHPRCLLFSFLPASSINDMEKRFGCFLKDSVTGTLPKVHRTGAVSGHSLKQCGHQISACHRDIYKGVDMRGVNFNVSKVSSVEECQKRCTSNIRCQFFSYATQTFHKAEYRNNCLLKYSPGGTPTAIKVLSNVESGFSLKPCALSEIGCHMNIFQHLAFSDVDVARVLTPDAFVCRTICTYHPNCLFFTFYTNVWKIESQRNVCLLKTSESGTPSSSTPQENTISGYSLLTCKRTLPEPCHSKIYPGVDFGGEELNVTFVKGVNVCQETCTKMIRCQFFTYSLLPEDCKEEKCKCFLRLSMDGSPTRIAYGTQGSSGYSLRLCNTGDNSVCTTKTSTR
Compound,"Quantity of p-nitroaniline (pNA), β-naphthylamine (2-NA) or 4-methoxy-β-naphthylamine (4-MeO-2-NA) released within 1 minute by 1 BAEE unit of plasma kallikrein (plasma kallikrein)","Quantity of p-nitroaniline (pNA), β-naphthylamine (2-NA) or 4-methoxy-β-naphthylamine (4-MeO-2-NA) released within 1 minute by one C unit of human plasmin (plasmin)"
N^α -4-Aminomethyl-cyclohexylcarbonyl-Pro-Phe-Arg-pNA.2HCl [Substrate IX],65.1 nm,600.0 nm
"COc1cc(NC(=O)[C@H](CCCNC(=N)N)NC(=O)[C@H](Cc2ccccc2)NC(=O)[C@@H]2CCCN2C(=O)c2ccccc2)cc2ccccc12 [Substrate XVIII, N^α-Bz-Pro-Phe-Arg-4-MeO-2-NA^. HCl]",39.8 nm,79.7 nm
"N=C(N)NCCC[C@H](NC(=O)[C@H](Cc1ccccc1)NC(=O)[C@@H]1CCCN1)C(=O)Nc1ccc([N+](=O)[O-])cc1 [Substrate II, H-Pro-Phe-Arg-pNA.2HCl] (H-Pro-Phe-Arg-pNA)",28.6 nm,16.2 nm
"N=C(N)NCCC[C@H](NC(=O)[C@H](Cc1ccccc1)NC(=O)[C@@H]1CCCN1C(=O)CCCCCN)C(=O)Nc1ccc([N+](=O)[O-])cc1 [Substrate VIII, N^α -(ω-Aminocaproyl)-Pro-Phe-Arg-pNA.2HCl] (H-[Ahx]PFR-pNA)",59.7 nm,256.0 nm
"N=C(N)NCCC[C@H](NC(=O)[C@H](Cc1ccccc1)NC(=O)[C@@H]1CCCN1C(=O)OCc1ccccc1)C(=O)Nc1ccc([N+](=O)[O-])cc1 [Substrate XIII, N^α-Cbo-Pro-Phe-Arg-pNA.HCl] (Cbz-Pro-Phe-Arg-pNA)",109.9 nm,176.1 nm
N^α -Caproyl-Pro-Phe-Arg-pNA.HCl [Substrate IV],108.3 nm,100.0 nm
"Cc1ccc(C(=O)N2CCC[C@H]2C(=O)N[C@@H](Cc2ccccc2)C(=O)N[C@@H](CCCNC(=N)N)C(=O)Nc2ccc([N+](=O)[O-])cc2)cc1 [Substrate VI, N^α -4-Methyl-Bz-Pro-Phe-Arg-pNA.HCl]",78.4 nm,142.0 nm
"N=C(N)NCCC[C@H](NC(=O)[C@H](Cc1ccccc1)NC(=O)[C@@H]1CCCN1C(=O)C1CCCCC1)C(=O)Nc1ccc([N+](=O)[O-])cc1 [Substrate V, N^α -cyclohexylcarbonyl-Pro-Phe-Arg-pNA.HCl]",154.7 nm,158.0 nm
"N=C(N)NCCC[C@H](NC(=O)[C@H](Cc1ccccc1)NC(=O)[C@@H]1CCCN1C(=O)c1ccc(N)cc1)C(=O)Nc1ccc([N+](=O)[O-])cc1 [Substrate XII, N^α-4-Aminobenzoyl-Pro-Phe-Arg-pNA. 2HCl] (H-[4Abz]PFR-pNA)",49.2 nm,196.0 nm
"N=C(N)NCCC[C@H](NC(=O)[C@@H](NC(=O)[C@@H]1CCCN1C(=O)c1ccccc1)c1ccccc1)C(=O)Nc1ccc([N+](=O)[O-])cc1 [Substrate XVI, N^α-Bz-Pro-Ph.Gly-Arg-pNA.HCl] (Bz-Pro-[Phg]-Arg-pNA)",9.1 nm,16.2 nm
"N=C(N)NCCC[C@H](NC(=O)[C@H](Cc1ccccc1)NC(=O)[C@@H]1CCCN1C(=O)Cc1ccc(N)cc1)C(=O)Nc1ccc([N+](=O)[O-])cc1 [Substrate XI, N^α-4-Aminophenyl-acetyl-Pro-Phe-Arg-pNA. 2HCl]",72.1 nm,230.0 nm
"CC(=O)N1CCC[C@H]1C(=O)N[C@@H](Cc1ccccc1)C(=O)N[C@@H](CCCNC(=N)N)C(=O)Nc1ccc([N+](=O)[O-])cc1 [Substrate III, N^α -Ac-Pro-Phe-Arg-pNA.HCl] (Ac-Pro-Phe-Arg-pNA)",42.3 nm,49.1 nm
"N=C(N)NCCC[C@H](NC(=O)[C@H](Cc1ccccc1)NC(=O)[C@@H]1CCCN1C(=O)c1ccccc1)C(=O)Nc1ccc2ccccc2c1 [Substrate XVII, N^α-Bz-Pro-Phe-Arg-2-NA^. HCl] (Bz-Pro-Phe-Arg-βNA)",44.1 nm,95.4 nm
"N=C(N)NCCC[C@H](NC(=O)[C@H](Cc1ccc(O)cc1)NC(=O)[C@@H]1CCCN1C(=O)c1ccccc1)C(=O)Nc1ccc([N+](=O)[O-])cc1 [Substrate XV, N^α-Bz-Pro-Tyr-Arg-pNA.HCl] (Bz-Pro-Tyr-Arg-pNA)",71.0 nm,73.8 nm
"N=C(N)NCCC[C@H](NC(=O)[C@H](CC1CCCCC1)NC(=O)[C@@H]1CCCN1C(=O)c1ccccc1)C(=O)Nc1ccc([N+](=O)[O-])cc1 [Substrate XIV, N^α-Bz-Pro-CHA-Arg-pNA.HCl] (Bz-Pro-[Cha]-Arg-pNA)",64.5 nm,116.0 nm
"Cc1ccc(S(=O)(=O)N2CCC[C@H]2C(=O)N[C@@H](Cc2ccccc2)C(=O)N[C@@H](CCCNC(=N)N)C(=O)Nc2ccc([N+](=O)[O-])cc2)cc1 [Substrate X, N^α-Tos-Pro-Phe-Arg-pNA.HCl] (Tos-Pro-Phe-Arg-pNA)",88.5 nm,80.2 nm
